Legend:
PDE = conditions: non-specific PDE inhibitor; cited from earlier work
asthmatic patients = assay: sGaw after inhaled dry powder in asthmatic patients (Examples 5, 6)
Protocol: (§1) To test this theory, asthmatic patients are enrolled in a dose escalating single blind study. On arrival to the clinic, subjects are allowed to rest for 20 minutes before baseline measurements of FEV1 (six recordings) and sGaw (five recordings) are made. Subjects receive a dry powder dispenser loaded with a dose of 2 mg theophylline or a dry powder carrier. […] After each inhalation, measurements of sGaw are made at 1, 3, 5, 10, 15, 20, 25, and 30 minutes.
On completion of the last recording, subjects inhale a 200 μg dose of salbutamol from a metered inhaler and a further measurement of sGaw is made after 15 minutes. Subjects are also monitored for coughing and are questioned about the taste of the drug.
as §1, with “Asthmatic patients” for “To test this theory, asthmatic patients”, “of 1” for “of 2”, “mg IBMX formulated as a dry powder” for “mg theophylline”
On completion of the last recording, subjects inhale a 200 μg dose of salbutamol from a metered inhaler and a further measurement of sGaw made after 15 minutes. Subjects are also be monitored for coughing and are questioned about the taste of the drug.

[1] = test system: subjects with a taste and/or smell disorder; assay: Taste and/or smell function after intranasal dosage units in a plume from a multi-dose nasal spray device (Examples 10-15); assay type: in vivo, human; conditions: once per day in each naris
Source text: The improvements in taste and/or smell function are evidenced by a decrease in the detection threshold for at least one odorant and/or tastant, a decrease in the recognition threshold for at least one odorant and/or tastant, and/or an increase in a magnitude estimation for at least one odorant and/or tastant.

patients with hyposmia = assay: Subjective overall change in smell function; open trial of oral theophylline; assay type: in vivo, human; conditions: cilostazol added to 600 mg or 800 mg of theophylline in patients who improved <5%
Protocol: Independently, patients were also required to grade their ability to smell daily on a scale from 0-100, with 0 reflecting no overall smell function over a 24 hour period, 100 reflecting normal overall smell function over this period and numbers from 0-100 reflecting their estimation of their overall ability to smell odors over this period.
After determination of hyposmia, patients were treated in an open label, fixed design, controlled open trial. Patients were given an oral extended release theophylline in divided daily doses taken in the middle of breakfast and lunch. All patients were initially given 200 mg of theophylline; changes in this dose were made based upon subjective responses to therapy. If at a subsequent return visit, patients reported ≥5% subjective improvement in overall smell function, they continued on this same dose of theophylline and were reevaluated after four to six months of continued treatment. Results from any subsequent return from these improved patients were not included in any subsequent data report. All subsequent comparisons between treated and untreated patients were made only between those patients continuing in the study compared to their own measurements obtained in the untreated state. If patients reported <5% subjective improvement, their theophylline dose was increased by 200 mg daily and they were scheduled for retesting at the study site after two to four months at this new dosage. For patients that reported <5% improvement, this sequence continued until patients reached 800 mg of theophylline, at which time the study was considered completed.
Patients returned for reevaluation after two to four months of treatment. Measurements of blood serum theophylline were measured by a fluorescence polarization assay (Abbott, Chicago, Ill.). At this time, subjective changes in smell function were measured independently (compared to patient's memory of previous normal smell function monitored by use of the patients' daily measurements) using the scale from −100−0-+100 previously described. After independently recording their subjective responses, smell function was measured for all four odors with DT, RT, ME and H determined without recourse to prior measurements.
Subjective overall changes in smell acuity were reported by telephone and by FAX or email at two—four month intervals after treatment was initiated using the standardized form in which they measured daily changes in smell acuity using the −100−0-+100 scale as noted above. Using the same criteria noted above, if at their initial two—four month call-in they reported improvement in smell acuity of ≥5%, they continued at 200 mg and returned to the study site at four—six months on this treatment dose. If they reported improvement in smell acuity of <5% their dose of theophylline was increased to 400 mg for an additional two—four months and they then called the study site at the end of this period.

CC(C)Cn1c(=O)n(C)c(=O)c2[nH]cnc21 [IBMX, 3-isobutyl-1-methylxanthine]
IC50 (PDE): 2 to 50 µM
sGaw above the baseline measurement (asthmatic patients; after 30 minutes, inhaled dry powder 1 mg IBMX): 20%
taste and coughing (asthmatic patients; human, in vivo): without the unpleasant taste or the induction of coughing
increase in sGaw relative to 200 μg inhaled salbutamol (asthmatic patients; inhaled dry powder 1 mg IBMX): comparable
time until sGaw baseline is reached (asthmatic patients; inhaled dry powder 1 mg IBMX): one and a half

O=C1CCc2cc(OCCCCc3nnnn3C3CCCCC3)ccc2N1 [cilostazol]
taste and/or smell function [1]: improvement in taste and/or smell function
additional patients with improved smell function (patients with hyposmia): 15%

COc1ccc(Cc2nccc3cc(OC)c(OC)cc23)cc1OC [papaverine]
taste and/or smell function [1]: improvement in taste and/or smell function

O=C(Nc1c(Cl)cncc1Cl)c1ccc(OC(F)F)c(OCC2CC2)c1 [roflumilast]
taste and/or smell function [1]: improvement in taste and/or smell function
